Experimental data taken from patent US7087394B2, “Methods and compositions for treating and diagnosing diabetes and related diseases involving beta-TRP” (Metabolex, Inc., priority 2003, dated 2006).
“Also recorded” adds a separate entry of the source.

What was measured:
control (A1-5) CHO cells = experiment: Membrane potential (MP) assay in control CHO cells (A1-5); type: cell-based, Chinese hamster; details: control CHO line (A1-5)
Procedure: (§1) Control and βTRP-CHO cells were plated in 96-well plates 2-d before the assay. [Ca^2+]i and membrane potential (MP) responses to ATP (30 μM added at 20 sec) were measured with FLEXStation® and correspondent dyes from Molecular Devices (Sunnyvale, Calif.).
(§2) The following protocol is optimized for the measurement of membrane potential (MP) in 96-well format using Molecular Devices' Membrane Potential Dye (Cat #R-8034) on the FLEXStation (Molecular Devices). It is expected to be applicable or adaptable to the 384-well format assay with the FLIPR^384 system.
A CHO-K1 based stable cell line expressing βTRP (designated “Line A2-18” herein) is used for βTRP high throughput screening according to the follow protocol: • 1. Seed A2–18 βTrp-CHO cell and the control line (A1-5) to 96-well plates. • 2. Grow the cells for 24–48 h in DMEM medium to 85–95% confluency. • 3. Prepare following reagents immediately before the assay: • i. Assay buffer: dilute Component B of the FLIPR® assay kit and adjust pH to 7.4 with 1 N NaOH. No probenecid was needed. • ii. MP dye: suspend a vial of Component A of the FLIPR® assay kit with 10 ml of the assay buffer. • iii. Compound solutions: dilute DMSO stocks of the testing compounds to a 5× solution with the assay buffer. Raise Ca^2+ concentration in the compound solutions to 12.5 mM with 1 M CaCl2. • 4. Carefully remove the culture medium from all wells. • 5. Add 50 μl assay buffer and 50 μl MP dye. • 6. Incubate the plates at 37° C. for 30–60 minutes. • 7. Set the FLEXStation to MP assay mode and to 37° C. • 8. Transfer the cell plate and compound plate to FLEXStation. • 9. Record baseline for 18 sec (Ex 530, Em560). • 10. Add the 5× compound solutions to the cells and read another 100 sec. • 11. Save and analyze data. Reagent List • 1. Assay buffer: Hank's Balanced Salt Solution (HBSS) with 20 mM Hepes, pH 7.4 • 2. MP dye: Molecular Devices Corporation, Cat#8034 (for FLIPR) • 3. Positive control: ATP 10–100 μM (a purinergic receptor agonist) Calcimycin (A23187) 5–10 μM (a calcium ionophore) • 4. Antagonist control: • i. […]

βTRP = molecular target: T1, βTRP (Homo sapiens, UniProt Q9NZQ8); experiment: Membrane potential (MP) assay in βTRP-CHO cells, FLEXStation with Membrane Potential Dye; type: cell-based; details: for depolarization / MP response in βTRP-CHO cells: βTRP-CHO cell line (A2-18); for EC50: βTRP-CHO cells, membrane potential, read-out: estimated EC50 of depolarization
T1 construct: expressed in transfected cells; control line A1-5
T1 sequence (Q9NZQ8 1-1165): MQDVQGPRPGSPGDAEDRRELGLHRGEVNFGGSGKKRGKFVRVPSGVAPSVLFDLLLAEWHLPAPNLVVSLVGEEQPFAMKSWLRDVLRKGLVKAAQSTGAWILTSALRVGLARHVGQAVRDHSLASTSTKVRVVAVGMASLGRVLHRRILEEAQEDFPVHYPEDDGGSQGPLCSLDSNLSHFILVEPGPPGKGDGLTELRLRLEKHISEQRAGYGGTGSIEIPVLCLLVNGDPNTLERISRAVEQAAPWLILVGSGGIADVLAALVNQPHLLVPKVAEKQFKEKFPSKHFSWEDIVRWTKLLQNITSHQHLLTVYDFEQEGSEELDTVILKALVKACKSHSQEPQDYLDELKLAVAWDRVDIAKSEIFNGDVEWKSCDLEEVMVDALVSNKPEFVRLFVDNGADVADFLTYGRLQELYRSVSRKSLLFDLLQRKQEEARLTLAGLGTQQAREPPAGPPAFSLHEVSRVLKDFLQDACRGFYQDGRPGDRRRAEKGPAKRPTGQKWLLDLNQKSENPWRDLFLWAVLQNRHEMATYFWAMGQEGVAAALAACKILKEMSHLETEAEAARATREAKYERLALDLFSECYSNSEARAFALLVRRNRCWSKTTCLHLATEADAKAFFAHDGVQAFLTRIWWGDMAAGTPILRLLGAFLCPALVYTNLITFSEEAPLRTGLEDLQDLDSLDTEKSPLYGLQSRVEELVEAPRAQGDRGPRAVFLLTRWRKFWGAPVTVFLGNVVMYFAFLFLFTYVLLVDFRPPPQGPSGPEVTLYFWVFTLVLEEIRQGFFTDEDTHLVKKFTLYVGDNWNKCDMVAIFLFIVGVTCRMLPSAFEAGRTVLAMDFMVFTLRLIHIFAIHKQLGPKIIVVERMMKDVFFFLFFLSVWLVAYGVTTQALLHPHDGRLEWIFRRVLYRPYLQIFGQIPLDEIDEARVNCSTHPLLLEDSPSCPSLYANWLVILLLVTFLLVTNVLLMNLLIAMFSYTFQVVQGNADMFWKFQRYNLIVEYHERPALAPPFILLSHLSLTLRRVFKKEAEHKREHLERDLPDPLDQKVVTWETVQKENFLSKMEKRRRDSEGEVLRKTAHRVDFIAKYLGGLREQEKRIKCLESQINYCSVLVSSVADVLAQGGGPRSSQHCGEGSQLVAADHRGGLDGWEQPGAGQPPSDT
Procedure: as §1, §2
A CHO-K1 based stable cell line expressing βTRP (designated “Line A2-18” herein) is used for βTRP high throughput screening according to the follow protocol: • 1. Seed A2–18 βTrp-CHO cell and the control line (A1-5) to 96-well plates. • 2. Grow the cells for 24–48 h in DMEM medium to 85–95% confluency. • 3. Prepare following reagents immediately before the assay: • i. Assay buffer: dilute Component B of the FLIPR® assay kit and adjust pH to 7.4 with 1 N NaOH. No probenecid was needed. • ii. MP dye: suspend a vial of Component A of the FLIPR® assay kit with 10 ml of the assay buffer. • iii. Compound solutions: dilute DMSO stocks of the testing compounds to a 5× solution with the assay buffer. Raise Ca^2+ concentration in the compound solutions to 12.5 mM with 1 M CaCl2. • 4. Carefully remove the culture medium from all wells. • 5. Add 50 μl assay buffer and 50 μl MP dye. • 6. Incubate the plates at 37° C. for 30–60 minutes. • 7. Set the FLEXStation to MP assay mode and to 37° C. • 8. Transfer the cell plate and compound plate to FLEXStation. • 9. Record baseline for 18 sec (Ex 530, Em560). • 10. Add the 5× compound solutions to the cells and read another 100 sec. • 11. Save and analyze data. Reagent List • 1. Assay buffer: Hank's Balanced Salt Solution (HBSS) with 20 mM Hepes, pH 7.4 • 2. MP dye: Molecular Devices Corporation, Cat#8034 (for FLIPR) • 3. Positive control: ATP 10–100 μM (a purinergic receptor agonist) Calcimycin (A23187) 5–10 μM (a calcium ionophore) • 4. Antagonist control: • i. 2-APB 75 μM (from Tocris, TRP channel and IP3 receptor blocker); • ii. U73122 10 μM (from Sigma Chemicals, PLC inhibitor). Other Experimental Conditions • 1. The Cells: • iii. Maintenance: DMEM with 10% FCS and 200 μg/ml G418; Passaged 1–2 time/week with trypsin-EDTA. • iv. Confluency: 85–95% by the time of assay. • v. Plating: Regular or pre-coated plates; 24–48 h before assay. • vi. Passage: up to the 10th passage.

Compound: CNc1ccc2oc(C[C@H]3O[C@@]4(CC[C@H]3C)O[C@H]([C@H](C)C(=O)c3ccc[nH]3)[C@H](C)C[C@H]4C)nc2c1C(=O)O [calcimycin, Calcimycin]
- depolarization / MP response in control cells (control (A1-5) CHO cells): No effect
- depolarization / MP response in βTRP-CHO cells (βTRP): dose-dependently induced depolarization
- depolarization / MP response in βTRP-CHO cells (βTRP; listed as A23187): induced a βTRP cell specific depolarization
- EC50 (βTRP): ~0.8 µM

Compound: C=CC[C@H](C)[C@H](C)C[C@@H](O)[C@H](O)[C@@H]1CC[C@@]2(C)O[C@@]3(C)C[C@@]4(C)O[C@H]5/C=C\C[C@H]6O[C@H]7C[C@H]8O[C@H]9C[C@@]%10(C)O[C@@](C)([C@@H]%11CC[C@H]%12O[C@@]%13(C)C[C@H]%14O[C@@]%15(C)C[C@H]%16O[C@@]%17(C)C[C@@H](O)[C@H]([C@@H]%18O[C@H]%19[C@H](O)[C@@H](O)[C@H](C[C@H](O)C[C@@H](O)[C@@H]%20O[C@H]%21[C@H](O)[C@@H](O)[C@H]([C@@H]%22O[C@@H]%23[C@H](O)[C@H]%24O[C@H]%25C[C@H]%26O[C@@H](C[C@H](O)[C@@H](O)[C@H]%27O[C@H]%28[C@H](O)[C@H]%29O[C@H]%30C[C@H]%31O[C@H]%32[C@@H](O)[C@@H](O)[C@H]([C@H](C)[C@H](O)[C@H](C)CC[C@H](OS(=O)(=O)O)[C@H](O)[C@H](C)C[C@@H](O)C(=C)/C(C)=C/CO)O[C@@H]%32[C@H](O)C[C@]%31(C)O[C@@H]%30C[C@]%29(C)O[C@@H]%28C[C@H]%27O)[C@H](OS(=O)(=O)O)[C@H](O)[C@@H]%26O[C@@H]%25C[C@@H]%24O[C@H]%23[C@H](O)[C@H]%22O)O[C@H]%21C[C@H]%20O)O[C@H]%19C[C@H]%18O)O[C@@H]%17[C@H](O)[C@]%16(C)O[C@@H]%15CC[C@]%14(C)O[C@@H]%13C[C@@H]%12O%11)[C@H](O)C[C@@H]%10O[C@]9(C)CC[C@]8(C)O[C@]7(C)C[C@@H]6O[C@@H]5C[C@@H]4O[C@@H]3C[C@@H]2O1 [MTX, maitotoxin]
- MP response at low Ca2+ (βTRP; 1.26 mM Ca2+ in assay buffer): lack of action
- [Ca2+]i or MP increase at raised Ca2+ (βTRP; Ca2+ raised to 2.5–5 mM): significantly enhanced

Compound: NCCOB(c1ccccc1)c1ccccc1 [2-APB]
- suppression of MP response to ATP (βTRP; inhibitor added at the same time as ATP): over 50%
- suppression of MP response to calcimycin (βTRP; inhibitor added at the same time as calcimycin): over 50%

Compound: COc1ccc2c(c1)CC[C@@H]1[C@@H]2CC[C@]2(C)[C@@H](NCCCCCCN3C(=O)C=CC3=O)CC[C@@H]12 [U73122]
- effect on ATP-induced MP response after pre-incubation (βTRP; 30 minute pre-incubation before ATP): inhibited

Compound: Nc1ncnc2c1ncn2[C@@H]1O[C@H](COP(=O)(O)OP(=O)(O)OP(=O)(O)O)[C@@H](O)[C@H]1O [ATP]
- depolarization / MP response in control cells (control (A1-5) CHO cells): No effect
- depolarization / MP response in βTRP-CHO cells (βTRP): present only in βTRP cells; also recorded: dose-dependently induced depolarization
- EC50 (βTRP): ~11 µM

Compound: CCCCCCC[N+](CC)(CC)CCCCc1ccc(Cl)cc1 [Clofilium]
- depolarization / MP response in control cells (control (A1-5) CHO cells): triggered depolarization
- depolarization / MP response in βTRP-CHO cells (βTRP): triggered depolarization
